Molecular target: T1, T1R2/T1R3 taste receptor (Homo sapiens, UniProt Q8TE23)
T1 sequence (Q8TE23 20-839): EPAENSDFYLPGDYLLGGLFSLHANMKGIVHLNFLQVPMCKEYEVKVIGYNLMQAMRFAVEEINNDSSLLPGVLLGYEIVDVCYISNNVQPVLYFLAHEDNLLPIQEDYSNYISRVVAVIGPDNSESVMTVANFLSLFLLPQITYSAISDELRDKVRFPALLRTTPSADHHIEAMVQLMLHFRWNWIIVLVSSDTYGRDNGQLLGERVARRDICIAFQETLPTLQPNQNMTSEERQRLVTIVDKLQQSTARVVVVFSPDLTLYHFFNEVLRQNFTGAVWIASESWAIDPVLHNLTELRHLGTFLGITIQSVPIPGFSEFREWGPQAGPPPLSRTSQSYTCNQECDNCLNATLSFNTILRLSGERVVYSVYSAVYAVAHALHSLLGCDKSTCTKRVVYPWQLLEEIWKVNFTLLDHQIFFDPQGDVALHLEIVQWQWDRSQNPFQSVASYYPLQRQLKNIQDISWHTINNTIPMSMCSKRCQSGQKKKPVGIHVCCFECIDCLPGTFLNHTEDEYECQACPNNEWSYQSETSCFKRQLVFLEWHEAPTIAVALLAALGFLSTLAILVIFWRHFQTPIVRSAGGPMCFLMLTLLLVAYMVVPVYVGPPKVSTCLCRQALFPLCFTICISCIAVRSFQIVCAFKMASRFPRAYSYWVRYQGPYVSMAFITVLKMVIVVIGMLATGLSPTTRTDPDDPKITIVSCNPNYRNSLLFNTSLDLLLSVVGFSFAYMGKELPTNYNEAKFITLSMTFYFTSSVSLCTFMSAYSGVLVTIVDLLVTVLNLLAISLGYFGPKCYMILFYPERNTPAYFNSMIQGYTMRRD
T1 sequence (Q7RTX0 21-852 partner): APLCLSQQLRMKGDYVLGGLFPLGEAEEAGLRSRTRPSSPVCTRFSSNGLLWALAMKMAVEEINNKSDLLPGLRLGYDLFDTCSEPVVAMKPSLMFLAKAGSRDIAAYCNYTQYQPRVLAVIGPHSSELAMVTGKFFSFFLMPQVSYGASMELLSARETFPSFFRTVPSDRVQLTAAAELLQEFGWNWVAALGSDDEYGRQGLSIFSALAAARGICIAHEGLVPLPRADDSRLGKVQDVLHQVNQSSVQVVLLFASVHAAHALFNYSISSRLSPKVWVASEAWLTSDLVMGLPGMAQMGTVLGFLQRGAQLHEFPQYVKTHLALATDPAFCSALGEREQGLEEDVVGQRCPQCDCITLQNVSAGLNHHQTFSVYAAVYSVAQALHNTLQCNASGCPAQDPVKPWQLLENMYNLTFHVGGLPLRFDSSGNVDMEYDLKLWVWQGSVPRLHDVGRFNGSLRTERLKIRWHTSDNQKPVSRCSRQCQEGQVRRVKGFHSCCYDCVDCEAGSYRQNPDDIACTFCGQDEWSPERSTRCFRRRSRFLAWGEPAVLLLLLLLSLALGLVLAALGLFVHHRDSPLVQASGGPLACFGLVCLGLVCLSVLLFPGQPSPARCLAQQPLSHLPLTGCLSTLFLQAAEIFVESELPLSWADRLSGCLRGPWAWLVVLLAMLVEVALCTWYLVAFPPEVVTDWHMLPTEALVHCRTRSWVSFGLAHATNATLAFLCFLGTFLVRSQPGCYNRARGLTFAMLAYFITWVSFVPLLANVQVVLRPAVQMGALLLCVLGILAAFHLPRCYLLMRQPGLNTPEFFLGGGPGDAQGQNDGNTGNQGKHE
Assay: Receptor-based assay: sweetener EC50 alone and with test compound (enhancement ratio)
Format: cell-based
Settings: for Fructose Enhancement EC50 Ratio: sweetener fructose; for Sucrose Enhancement EC50 Ratio: sweetener sucrose; for Sucralose Enhancement EC50 Ratio: sweetener sucralose
Description: Potencies (EC50 values) for the sweeteners sucrose, sucralose, and fructose were measured against the T1R2/T1R3 taste receptor. EC50 was determined using the sweetener alone and in the presence of 3 μM, 10 μM, or 50 μM of test compound. EC50 ratios were calculated by the ratio of potency with and without the test compound. An “A” value indicates an enhancement ratio of greater than 20. A “B” value indicates an enhancement ratio from 10 to 20. A “C” value indicates an enhancement ratio greater than 1 and less than 10.

Row | SMILES | Fructose Enhancement EC50 Ratio (10 μM test compound) | Fructose Enhancement EC50 Ratio (50 μM test compound) | Sucrose Enhancement EC50 Ratio (10 μM test compound) | Sucrose Enhancement EC50 Ratio (50 μM test compound) | Sucralose Enhancement EC50 Ratio (10 μM test compound) | Sucralose Enhancement EC50 Ratio (50 μM test compound) | Sucrose Enhancement EC50 Ratio (3 μM test compound)
1 | CC(C)NC(=O)c1cccc(N2CCC[C@H](COc3cccc4c3C(N)=NS(=O)(=O)N4)C2)n1 [Compound 407] | C (A “C” value indicates an enhancement ratio greater than 1 and less than 10) | C (A “C” value indicates an enhancement ratio greater than 1 and less than 10) | B (A “B” value indicates an enhancement ratio from 10 to 20) | C (A “C” value indicates an enhancement ratio greater than 1 and less than 10) |  |  | 
2 | COCCNc1nccc(NC(C)(C)COc2cccc3c2C(N)=NS(=O)(=O)N3)n1 [Compound 206] | C (A “C” value indicates an enhancement ratio greater than 1 and less than 10) | C (A “C” value indicates an enhancement ratio greater than 1 and less than 10) | C (A “C” value indicates an enhancement ratio greater than 1 and less than 10) | C (A “C” value indicates an enhancement ratio greater than 1 and less than 10) | B (A “B” value indicates an enhancement ratio from 10 to 20) | A (An “A” value indicates an enhancement ratio of greater than 20) | C (A “C” value indicates an enhancement ratio greater than 1 and less than 10)
3 | NC1=NS(=O)(=O)Nc2cccc(OC[C@H]3CCCN(c4ncccn4)C3)c21 [Compound 105] | C (A “C” value indicates an enhancement ratio greater than 1 and less than 10) | C (A “C” value indicates an enhancement ratio greater than 1 and less than 10) | C (A “C” value indicates an enhancement ratio greater than 1 and less than 10) | C (A “C” value indicates an enhancement ratio greater than 1 and less than 10) | A (An “A” value indicates an enhancement ratio of greater than 20) | A (An “A” value indicates an enhancement ratio of greater than 20) | C (A “C” value indicates an enhancement ratio greater than 1 and less than 10)
4 | NC1=NS(=O)(=O)Nc2cccc(OC[C@H]3CCCN(c4ncc(F)cn4)C3)c21 [Compound 305] | C (A “C” value indicates an enhancement ratio greater than 1 and less than 10) | C (A “C” value indicates an enhancement ratio greater than 1 and less than 10) | C (A “C” value indicates an enhancement ratio greater than 1 and less than 10) | C (A “C” value indicates an enhancement ratio greater than 1 and less than 10) | A (An “A” value indicates an enhancement ratio of greater than 20) | A (An “A” value indicates an enhancement ratio of greater than 20) | C (A “C” value indicates an enhancement ratio greater than 1 and less than 10)
5 | CN1CCN(C(=O)c2cccc(N3CCC[C@H](COc4cccc5c4C(N)=NS(=O)(=O)N5)C3)n2)CC1 [Compound 415] | C (A “C” value indicates an enhancement ratio greater than 1 and less than 10) | C (A “C” value indicates an enhancement ratio greater than 1 and less than 10) | C (A “C” value indicates an enhancement ratio greater than 1 and less than 10) | C (A “C” value indicates an enhancement ratio greater than 1 and less than 10) |  | A (An “A” value indicates an enhancement ratio of greater than 20) | C (A “C” value indicates an enhancement ratio greater than 1 and less than 10)
6 | CC(C)CNC(=O)c1cccc(N2CCC[C@H](COc3cccc4c3C(N)=NS(=O)(=O)N4)C2)n1 [Compound 416] |  | C (A “C” value indicates an enhancement ratio greater than 1 and less than 10) | C (A “C” value indicates an enhancement ratio greater than 1 and less than 10) | B (A “B” value indicates an enhancement ratio from 10 to 20) | A (An “A” value indicates an enhancement ratio of greater than 20) | A (An “A” value indicates an enhancement ratio of greater than 20) | C (A “C” value indicates an enhancement ratio greater than 1 and less than 10)
7 | CN(C)CCNC(=O)c1ccnc(N2CCC[C@H](COc3cccc4c3C(N)=NS(=O)(=O)N4)C2)c1 [Compound 605] | C (A “C” value indicates an enhancement ratio greater than 1 and less than 10) | C (A “C” value indicates an enhancement ratio greater than 1 and less than 10) | C (A “C” value indicates an enhancement ratio greater than 1 and less than 10) | B (A “B” value indicates an enhancement ratio from 10 to 20) | A (An “A” value indicates an enhancement ratio of greater than 20) | A (An “A” value indicates an enhancement ratio of greater than 20) | C (A “C” value indicates an enhancement ratio greater than 1 and less than 10)
8 | NC1=NS(=O)(=O)Nc2cccc(OC[C@H]3CCCN(c4ccc(C(=O)NC5CCCC5)cn4)C3)c21 [Compound 508] |  | C (A “C” value indicates an enhancement ratio greater than 1 and less than 10) | C (A “C” value indicates an enhancement ratio greater than 1 and less than 10) | C (A “C” value indicates an enhancement ratio greater than 1 and less than 10) | B (A “B” value indicates an enhancement ratio from 10 to 20) | A (An “A” value indicates an enhancement ratio of greater than 20) | C (A “C” value indicates an enhancement ratio greater than 1 and less than 10)
9 | CC(C)(COc1cccc2c1C(N)=NS(=O)(=O)N2)Nc1ncccn1 [Compound 102] | C (A “C” value indicates an enhancement ratio greater than 1 and less than 10) |  | C (A “C” value indicates an enhancement ratio greater than 1 and less than 10) | B (A “B” value indicates an enhancement ratio from 10 to 20) | A (An “A” value indicates an enhancement ratio of greater than 20) | A (An “A” value indicates an enhancement ratio of greater than 20) | 
10 | CN1CCN(C(=O)c2ccnc(N3CCC[C@H](COc4cccc5c4C(N)=NS(=O)(=O)N5)C3)c2)CC1 [Compound 615] |  |  | C (A “C” value indicates an enhancement ratio greater than 1 and less than 10) | B (A “B” value indicates an enhancement ratio from 10 to 20) | A (An “A” value indicates an enhancement ratio of greater than 20) | A (An “A” value indicates an enhancement ratio of greater than 20) | C (A “C” value indicates an enhancement ratio greater than 1 and less than 10)

From patent publication US11945813B2, “5-substituted 4-amino-1H-benzo[c][1,2,6]thiadiazine 2,2-dioxides and formulations and uses thereof” (Firmenich Incorporated, priority 2018, dated 2024)
